Laboratory results as given in patent publication US12268674B2, “Mi-2β inhibitor as an immunotherapy agent” (BioVentures, LLC, priority 2021, dated 2025).
Like-named read-outs stand apart in the source and are kept apart here.

Experiments:
Assay in all cases: ATPase profile (ATP acyl phosphate probe)
Type in all cases: binding
UBA3 = molecular target: T1, UBA3 (Homo sapiens, UniProt Q8TBC4); conditions: UBA3, SEQ ID NO: 220, ATP BS
T1 construct: to get the native cell lysate; endogenous in cells; host or cells: A375 cell lysate
T1 sequence (Q8TBC4 2-463 limits assumed): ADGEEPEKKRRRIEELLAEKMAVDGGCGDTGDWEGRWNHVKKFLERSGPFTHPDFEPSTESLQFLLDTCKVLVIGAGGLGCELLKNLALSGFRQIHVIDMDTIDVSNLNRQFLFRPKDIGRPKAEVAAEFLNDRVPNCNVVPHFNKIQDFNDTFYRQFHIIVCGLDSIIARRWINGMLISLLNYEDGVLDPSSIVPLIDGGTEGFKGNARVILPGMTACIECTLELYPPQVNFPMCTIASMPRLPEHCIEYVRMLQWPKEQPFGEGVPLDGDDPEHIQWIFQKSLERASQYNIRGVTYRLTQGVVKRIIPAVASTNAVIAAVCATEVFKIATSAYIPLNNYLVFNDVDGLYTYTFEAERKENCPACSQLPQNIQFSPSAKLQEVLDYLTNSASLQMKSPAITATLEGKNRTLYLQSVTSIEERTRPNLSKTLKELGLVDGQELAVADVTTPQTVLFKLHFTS
T1 sequence (Q13564 whole entry partner): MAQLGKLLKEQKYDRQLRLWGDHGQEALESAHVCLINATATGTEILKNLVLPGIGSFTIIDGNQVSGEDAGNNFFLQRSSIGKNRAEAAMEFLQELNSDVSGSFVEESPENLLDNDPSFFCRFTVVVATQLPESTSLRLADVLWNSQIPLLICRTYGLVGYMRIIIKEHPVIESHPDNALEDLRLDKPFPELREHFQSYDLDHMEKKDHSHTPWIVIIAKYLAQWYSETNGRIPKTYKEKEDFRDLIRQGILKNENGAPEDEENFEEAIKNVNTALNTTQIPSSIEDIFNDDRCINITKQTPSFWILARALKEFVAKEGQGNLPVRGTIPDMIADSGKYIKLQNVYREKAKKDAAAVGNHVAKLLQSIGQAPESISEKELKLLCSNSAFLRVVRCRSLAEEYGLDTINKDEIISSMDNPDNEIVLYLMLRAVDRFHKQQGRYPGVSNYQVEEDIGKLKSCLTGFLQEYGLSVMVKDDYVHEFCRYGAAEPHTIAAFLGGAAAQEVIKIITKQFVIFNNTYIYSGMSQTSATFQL

ABCF1 = molecular target: T2, ABCF1 (Homo sapiens, UniProt Q8NE71); conditions: ABCF1, SEQ ID NO: 16, ATP BS
T2 construct: to get the native cell lysate; host or cells: A375 cell lysate

MDN1 = molecular target: T3, MDN1 (Homo sapiens, UniProt Q9NU22); conditions: MDN1, SEQ ID NO: 121, ATP BS
T3 construct: to get the native cell lysate; endogenous in cells; host or cells: A375

MCM6 = molecular target: T4, MCM6 (Homo sapiens, UniProt P33991+Q14566); conditions: read-out: Inhibition (%) by 1 μM Z36-MP5
T4 construct: to get the native cell lysate; endogenous in cells; host or cells: A375

ACACA = molecular target: T5, ACACA (Homo sapiens, UniProt Q13085); conditions: SEQ ID NO: 20, ATP BS
T5 construct: to get the native cell lysate; host or cells: A375 cell lysate

TOR2A, TOR2X = conditions: SEQ ID NO: 205, ATP BS
CCT2 = molecular target: T6, CCT2 (Homo sapiens, UniProt P78371); conditions: CCT2, SEQ ID NO: 51, ATP BS
T6 construct: to get the native cell lysate; host or cells: A375 cell lysate

DHX15 = molecular target: T7, DHX15 (Homo sapiens, UniProt O43143); conditions: DHX15, SEQ ID NO: 72, ATP BS
T7 construct: endogenous in cells; host or cells: A375 cell lysate
T7 sequence (O43143 whole entry): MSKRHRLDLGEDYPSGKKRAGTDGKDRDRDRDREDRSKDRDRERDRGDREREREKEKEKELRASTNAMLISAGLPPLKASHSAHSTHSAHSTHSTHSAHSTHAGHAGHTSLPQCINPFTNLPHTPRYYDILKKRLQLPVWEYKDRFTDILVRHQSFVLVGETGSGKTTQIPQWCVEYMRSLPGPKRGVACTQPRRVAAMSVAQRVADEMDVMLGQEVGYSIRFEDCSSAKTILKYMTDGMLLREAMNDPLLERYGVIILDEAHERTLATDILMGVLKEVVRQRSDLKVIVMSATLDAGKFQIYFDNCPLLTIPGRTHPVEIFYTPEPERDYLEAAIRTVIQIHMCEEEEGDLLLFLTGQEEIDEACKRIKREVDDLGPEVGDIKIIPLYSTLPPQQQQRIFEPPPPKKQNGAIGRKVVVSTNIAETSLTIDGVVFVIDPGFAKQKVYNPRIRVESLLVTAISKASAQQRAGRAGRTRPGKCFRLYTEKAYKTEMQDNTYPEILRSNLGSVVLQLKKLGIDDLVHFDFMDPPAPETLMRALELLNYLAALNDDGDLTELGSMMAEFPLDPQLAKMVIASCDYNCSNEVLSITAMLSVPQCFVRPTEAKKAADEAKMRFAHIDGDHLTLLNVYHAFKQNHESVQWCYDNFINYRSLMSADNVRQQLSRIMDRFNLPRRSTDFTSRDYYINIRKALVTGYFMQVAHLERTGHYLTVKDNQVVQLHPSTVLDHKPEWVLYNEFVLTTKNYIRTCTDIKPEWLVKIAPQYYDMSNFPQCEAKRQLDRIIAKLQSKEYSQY

BAT1 = molecular target: T8, BAT1 (Homo sapiens, UniProt Q13838); conditions: BAT1, SEQ ID NO: 49, ATP BS
T8 construct: to get the native cell lysate; host or cells: A375 cell lysate

DDX28 = molecular target: T9, DDX28 (Homo sapiens, UniProt Q9NUL7); conditions: DDX28, SEQ ID NO: 68, ATP BS
T9 construct: endogenous in cells; host or cells: A375 cell lysate

RFK = molecular target: T10, RFK (Homo sapiens, UniProt Q969G6); conditions: SEQ ID NO: 187, ATP BS
T10 construct: to get the native cell lysate; endogenous in cells; host or cells: A375 cell lysate

AK4 = molecular target: T11, AK4 (Homo sapiens, UniProt P27144); conditions: AK4, SEQ ID NO: 35, ATP BS
T11 construct: to get the native cell lysate; host or cells: A375 cell lysate

MCM4 = molecular target: T12, MCM4 (Homo sapiens, UniProt P33991); conditions: MCM4, SEQ ID NO: 118, ATP BS; read-out: Inhibition (%) by 1 μM Z36-MP5
T12 construct: to get the native cell lysate; endogenous in cells; host or cells: A375

CCT3 = molecular target: T13, CCT3 (Homo sapiens, UniProt P49368); conditions: CCT3, SEQ ID NO: 52, ATP BS
T13 construct: to get the native cell lysate; host or cells: A375 cell lysate

HSPA8 = molecular target: T14, HSPA8 (Homo sapiens, UniProt P11142)
T14 construct: to get the native cell lysate; endogenous in cells; host or cells: A375
T14 sequence (P11142 whole entry): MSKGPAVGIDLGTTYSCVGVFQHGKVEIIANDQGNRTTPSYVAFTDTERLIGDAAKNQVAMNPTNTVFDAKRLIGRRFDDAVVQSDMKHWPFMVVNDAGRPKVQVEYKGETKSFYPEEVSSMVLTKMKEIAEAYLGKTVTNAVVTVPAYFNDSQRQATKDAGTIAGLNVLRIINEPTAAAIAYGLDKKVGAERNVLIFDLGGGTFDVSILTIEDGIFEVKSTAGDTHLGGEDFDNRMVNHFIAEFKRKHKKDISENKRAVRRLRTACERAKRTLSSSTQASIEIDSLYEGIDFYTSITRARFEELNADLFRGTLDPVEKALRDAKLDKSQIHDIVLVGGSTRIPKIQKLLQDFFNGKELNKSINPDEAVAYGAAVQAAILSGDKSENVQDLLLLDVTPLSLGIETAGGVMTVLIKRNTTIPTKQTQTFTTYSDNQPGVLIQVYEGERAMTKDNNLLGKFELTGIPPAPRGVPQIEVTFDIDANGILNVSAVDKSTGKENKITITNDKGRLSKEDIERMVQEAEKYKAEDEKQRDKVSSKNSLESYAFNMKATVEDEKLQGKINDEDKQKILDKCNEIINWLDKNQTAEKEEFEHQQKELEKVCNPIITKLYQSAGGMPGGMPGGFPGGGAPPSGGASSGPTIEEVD

HSPA9 = molecular target: T15, HSPA9 (Homo sapiens, UniProt P38646); conditions: HSPA9, SEQ ID NO: 108, ATP BS
T15 construct: to get the native cell lysate; endogenous in cells; host or cells: A375

NDUFA10 = molecular target: T16, NDUFA10 (Homo sapiens, UniProt O95299); conditions: NDUFA10, SEQ ID NO: 132, ATP BS
T16 construct: to get the native cell lysate; endogenous in cells; host or cells: A375

NRK1 = molecular target: T17, NRK1 (Homo sapiens, UniProt Q9NWW6); conditions: NRK1, SEQ ID NO: 137, ATP BS
T17 construct: to get the native cell lysate; endogenous in cells; host or cells: A375

XRCC5 = molecular target: T18, XRCC5 (Homo sapiens, UniProt P13010); conditions: XRCC5, SEQ ID NO: 231, ATP BS
T18 construct: to get the native cell lysate; endogenous in cells; host or cells: A375 cell lysate
T18 sequence (P13010 2-732 limits assumed): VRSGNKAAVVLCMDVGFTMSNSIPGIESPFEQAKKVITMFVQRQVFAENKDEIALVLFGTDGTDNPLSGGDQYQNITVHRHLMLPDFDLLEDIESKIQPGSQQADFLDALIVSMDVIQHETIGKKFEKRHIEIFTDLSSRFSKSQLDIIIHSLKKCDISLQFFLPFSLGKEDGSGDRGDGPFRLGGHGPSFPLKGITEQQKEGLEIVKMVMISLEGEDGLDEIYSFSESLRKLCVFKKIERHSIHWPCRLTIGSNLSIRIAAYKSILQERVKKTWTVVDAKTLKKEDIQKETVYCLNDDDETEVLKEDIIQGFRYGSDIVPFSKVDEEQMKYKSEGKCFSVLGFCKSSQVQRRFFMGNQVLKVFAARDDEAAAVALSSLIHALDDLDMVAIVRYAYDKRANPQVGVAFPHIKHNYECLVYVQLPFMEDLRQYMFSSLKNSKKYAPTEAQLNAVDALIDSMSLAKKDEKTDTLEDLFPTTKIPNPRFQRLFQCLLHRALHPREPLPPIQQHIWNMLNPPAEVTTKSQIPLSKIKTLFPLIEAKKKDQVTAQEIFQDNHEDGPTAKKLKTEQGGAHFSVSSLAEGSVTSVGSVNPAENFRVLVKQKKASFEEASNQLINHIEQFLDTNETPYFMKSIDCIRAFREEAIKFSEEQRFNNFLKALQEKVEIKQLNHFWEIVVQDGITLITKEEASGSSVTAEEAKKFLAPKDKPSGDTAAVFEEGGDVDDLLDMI
T18 sequence (P12956 2-609 partner limits assumed): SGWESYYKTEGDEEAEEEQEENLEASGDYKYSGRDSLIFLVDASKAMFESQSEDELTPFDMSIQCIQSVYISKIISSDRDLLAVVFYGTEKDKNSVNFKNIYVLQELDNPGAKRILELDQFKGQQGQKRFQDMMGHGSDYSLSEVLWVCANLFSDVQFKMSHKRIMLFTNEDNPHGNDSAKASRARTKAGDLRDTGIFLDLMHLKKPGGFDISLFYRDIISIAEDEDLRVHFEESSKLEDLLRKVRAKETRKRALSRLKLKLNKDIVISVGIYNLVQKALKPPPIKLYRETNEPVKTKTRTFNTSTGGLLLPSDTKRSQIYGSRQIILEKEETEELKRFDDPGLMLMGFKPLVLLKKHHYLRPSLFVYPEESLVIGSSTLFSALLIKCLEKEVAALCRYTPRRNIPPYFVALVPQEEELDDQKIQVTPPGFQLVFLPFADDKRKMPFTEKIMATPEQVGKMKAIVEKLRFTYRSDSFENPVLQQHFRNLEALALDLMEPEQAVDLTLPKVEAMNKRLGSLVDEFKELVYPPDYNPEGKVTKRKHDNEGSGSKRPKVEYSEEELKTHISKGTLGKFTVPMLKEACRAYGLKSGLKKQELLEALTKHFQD

NSF = molecular target: T19, NSF (Homo sapiens, UniProt P46459)
T19 construct: to get the native cell lysate; endogenous in cells; host or cells: A375
T19 sequence (P46459 whole entry): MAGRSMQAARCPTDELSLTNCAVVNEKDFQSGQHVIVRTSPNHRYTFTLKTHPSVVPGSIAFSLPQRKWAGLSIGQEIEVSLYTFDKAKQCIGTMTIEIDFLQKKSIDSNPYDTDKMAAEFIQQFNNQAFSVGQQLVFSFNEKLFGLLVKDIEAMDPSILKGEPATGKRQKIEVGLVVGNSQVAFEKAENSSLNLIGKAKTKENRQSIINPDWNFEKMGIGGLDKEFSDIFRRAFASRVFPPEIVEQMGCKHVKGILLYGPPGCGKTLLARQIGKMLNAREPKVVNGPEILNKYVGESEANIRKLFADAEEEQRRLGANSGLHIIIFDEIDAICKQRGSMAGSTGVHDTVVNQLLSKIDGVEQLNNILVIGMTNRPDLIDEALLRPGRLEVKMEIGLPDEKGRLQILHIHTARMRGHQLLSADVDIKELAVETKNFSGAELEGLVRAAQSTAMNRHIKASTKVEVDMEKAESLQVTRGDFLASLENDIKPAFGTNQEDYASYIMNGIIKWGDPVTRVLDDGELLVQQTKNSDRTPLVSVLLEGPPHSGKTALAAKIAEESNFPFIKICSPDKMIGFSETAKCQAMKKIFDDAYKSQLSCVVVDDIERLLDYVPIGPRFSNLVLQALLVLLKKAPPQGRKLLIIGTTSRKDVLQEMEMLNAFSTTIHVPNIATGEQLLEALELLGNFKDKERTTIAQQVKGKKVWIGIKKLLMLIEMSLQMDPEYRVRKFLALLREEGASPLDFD

ABCC10 = molecular target: T20, ABCC10 (Homo sapiens, UniProt Q5T3U5); conditions: ABCC10, SEQ ID NO: 7, ATP BS
T20 construct: to get the native cell lysate; host or cells: A375 cell lysate

PSMC2 = PSMC2 (Homo sapiens, UniProt P35998); conditions: PSMC2, SEQ ID NO: 174, ATP BS
CCT8 = molecular target: T21, CCT8 (Homo sapiens, UniProt P50990); conditions: CCT8, SEQ ID NO: 56, ATP BS
T21 construct: to get the native cell lysate; host or cells: A375 cell lysate

PMVK = molecular target: T22, PMVK (Homo sapiens, UniProt Q15126); conditions: SEQ ID NO: 163, ATP BS
T22 construct: to get the native cell lysate; endogenous in cells; host or cells: A375 cell lysate

ATAD1 = molecular target: T23, ATAD1 (Homo sapiens, UniProt Q8NBU5); conditions: ATAD1, SEQ ID NO: 44, ATP BS
T23 construct: to get the native cell lysate; host or cells: A375 cell lysate

CNP = molecular target: T24, CNP (Homo sapiens, UniProt P09543); conditions: SEQ ID NO: 61, ATP BS
T24 construct: endogenous in cells; host or cells: A375 cell lysate

SMC3 = molecular target: T25, SMC3 (Homo sapiens, UniProt Q9UQE7); conditions: SMC3, SEQ ID NO: 194, ATP BS
T25 construct: to get the native cell lysate; endogenous in cells; host or cells: A375 cell lysate

GSS = molecular target: T26, GSS (Homo sapiens, UniProt P48637)
T26 construct: endogenous in cells; host or cells: A375 cell lysate
T26 sequence (P48637 whole entry): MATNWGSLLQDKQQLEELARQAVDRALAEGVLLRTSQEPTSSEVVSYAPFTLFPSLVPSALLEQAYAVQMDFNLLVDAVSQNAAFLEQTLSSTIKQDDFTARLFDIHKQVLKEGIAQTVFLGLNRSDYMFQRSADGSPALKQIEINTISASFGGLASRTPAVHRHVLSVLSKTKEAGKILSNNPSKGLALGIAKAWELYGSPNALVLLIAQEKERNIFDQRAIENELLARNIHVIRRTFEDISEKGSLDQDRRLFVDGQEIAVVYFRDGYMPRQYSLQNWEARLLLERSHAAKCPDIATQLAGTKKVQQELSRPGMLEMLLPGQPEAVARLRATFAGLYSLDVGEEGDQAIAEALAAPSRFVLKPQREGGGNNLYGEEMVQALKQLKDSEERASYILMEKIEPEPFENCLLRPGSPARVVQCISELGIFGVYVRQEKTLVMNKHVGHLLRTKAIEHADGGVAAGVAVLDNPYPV

NOP2 = molecular target: T27, NOP2 (Homo sapiens, UniProt P46087); conditions: NOP2, SEQ ID NO: 136, ATP BS
T27 construct: to get the native cell lysate; endogenous in cells; host or cells: A375

Question: What does the source list for `Cn1c(=O)[nH]c2ccc(-c3cccc(C(=O)NC4CCn5ccnc5C4)c3)cc21` (stereo not drawn) [Z36-MP5, 3-(3-methyl-2-oxo-2,3-dihydro-1H-benzo[d]imidazol-5-yl)-N-(5,6,7,8-tetrahydroimidazo[1,2-a]pyridin-7-yl)benzamide]?
Answer: Inhibition (%) by 1 μM Z36-MP5 (UBA3): −11.62%; Inhibition (%) by 1 μM Z36-MP5 (ABCF1): −8.08%; Inhibition (%) by 1 μM Z36-MP5 (MDN1): 3.28%; inhibition at 1 µM (MCM6; MCM6, SEQ ID NO: 119, ATP BS): -5.23%; inhibition at 1 µM (MCM6; MCM6, SEQ ID NO: 120, ATP BS): -2.54%; Inhibition (%) by 1 μM Z36-MP5 (ACACA): 6.21%; Inhibition (%) by 1 μM Z36-MP5 (TOR2A, TOR2X): 0.38%; Inhibition (%) by 1 μM Z36-MP5 (CCT2): −6.50%; Inhibition (%) by 1 μM Z36-MP5 (DHX15): −5.22%; Inhibition (%) by 1 μM Z36-MP5 (BAT1): −9.58%; Inhibition (%) by 1 μM Z36-MP5 (DDX28): −5.30%; Inhibition (%) by 1 μM Z36-MP5 (RFK): 10.06%; Inhibition (%) by 1 μM Z36-MP5 (AK4): −9.19%; inhibition at 1 µM (MCM4): 4.98%; Inhibition (%) by 1 μM Z36-MP5 (CCT3): 10.09%; Inhibition (%) by 1 μM Z36-MP5 (HSPA8; HSPA8, SEQ ID NO: 106, ATP BS): 3.27%; Inhibition (%) by 1 μM Z36-MP5 (HSPA8; HSPA8, SEQ ID NO: 107, ATP BS): 4.45%; Inhibition (%) by 1 μM Z36-MP5 (HSPA9): −4.09%; Inhibition (%) by 1 μM Z36-MP5 (NDUFA10): 14.09%; Inhibition (%) by 1 μM Z36-MP5 (NRK1): 0.34%; Inhibition (%) by 1 μM Z36-MP5 (XRCC5): 2.24%; Inhibition (%) by 1 μM Z36-MP5 (NSF; SEQ ID NO: 138, ATP BS): 6.03%; Inhibition (%) by 1 μM Z36-MP5 (NSF; SEQ ID NO: 139, ATP BS): −6.18%; Inhibition (%) by 1 μM Z36-MP5 (ABCC10): −3.83%; Inhibition (%) by 1 μM Z36-MP5 (PSMC2): −6.44%; Inhibition (%) by 1 μM Z36-MP5 (CCT8): 9.18%; Inhibition (%) by 1 μM Z36-MP5 (PMVK): −5.60%; Inhibition (%) by 1 μM Z36-MP5 (ATAD1): 15.67%; Inhibition (%) by 1 μM Z36-MP5 (CNP): −17.28%; Inhibition (%) by 1 μM Z36-MP5 (SMC3): −10.19%; Inhibition (%) by 1 μM Z36-MP5 (GSS; SEQ ID NO: 87, ATP BS): −5.02%; Inhibition (%) by 1 μM Z36-MP5 (GSS; SEQ ID NO: 88, ATP BS): 7.54%; Inhibition (%) by 1 μM Z36-MP5 (NOP2): 1.98%
